Measurements taken from PMC12647143 (Nature Communications, 2025).

Legend:
MRSA ATCC 33591 [1] = assay: ROS accumulation assay; type: cell-based, methicillin-resistant Staphylococcus aureus; details: 2 × MIC and 4 × MIC
MRSA ATCC 33591 [2] = assay: Bacteria-induced pneumonia model; type: in vivo, Kunming mice; details: MRSA ATCC 33591 pneumonia model
MRSA ATCC 33591 [3] = assay: Antimicrobial-resistance test; type: cell-based, methicillin-resistant Staphylococcus aureus; details: for increase in MIC after continuous 14 passages exposure: MRSA ATCC 33591, 1/2 × MIC
[4] = tested on: K. pneumoniae ATCC 700603; assay: Antimicrobial-resistance test; type: cell-based, Klebsiella pneumoniae; details: 1/2 × MIC
[5] = tested on: multidrug-resistant bacteria; details: cited from earlier work
mammalian cells = details: cited from earlier work
[6] = tested on: K. pneumoniae ATCC 700603; assay: ROS accumulation assay; type: cell-based, Klebsiella pneumoniae; details: 1 ×, 2 ×, 4 × MIC
[7] = tested on: K. pneumoniae ATCC 700603; assay: Bacteria-induced pneumonia model; type: in vivo, Kunming mice
[8] = RT-qPCR of Cystatin C, Lipocalin 2, Havcr1 mRNA in kidney; type: in vivo, Kunming mice; details: AMP 1003 20 or 30 mg/kg; polymyxin B 20 mg/kg
[9] = Renal tubular injury score; details: AMP 1003 20 or 30 mg/kg; polymyxin B 20 mg/kg; score 0-5
[10] = ELISA of NGAL, Cystatin C and Kim-1 in serum and urine; details: 20 mg/kg or 30 mg/kg; 7 days
[11] = In vivo toxicity assay, single intraperitoneal injection

CN[C@H](CC(C)C)C(=O)N[C@H]1C(=O)N[C@@H](CC(N)=O)C(=O)N[C@H]2C(=O)N[C@H]3C(=O)N[C@H](C(=O)N[C@H](C(=O)O)c4cc(O)cc(O)c4-c4cc3ccc4O)[C@H](O)c3ccc(c(Cl)c3)Oc3cc2cc(c3O[C@@H]2O[C@H](CO)[C@@H](O)[C@H](O)[C@H]2O[C@H]2C[C@](C)(N)[C@H](O)[C@H](C)O2)Oc2ccc(cc2Cl)[C@H]1O [Vancomycin]
ROS accumulation (MRSA ATCC 33591 [1]): no such effect
lung histology (H&E) (MRSA ATCC 33591 [2]): substantially alleviated these pathological changes

C[C@@H](O)[C@H]1C(=O)N2C(C(=O)O)=C(SCCN=CN)C[C@H]12 [Imipenem]
increase in MIC after continuous 14 passages exposure (MRSA ATCC 33591 [3]): up to 8 fold
increase in MIC after continuous 14 passages exposure [4]: up to 16 fold

melittin
MIC [5]: 1 to 16 µM
concentration causing cytotoxicity and hemolysis (mammalian cells): 2000 nM

CNC(C)C1CCC(N)C(OC2C(N)CC(N)C(OC3OCC(C)(O)C(NC)C3O)C2O)O1 (centres unmarked) [Gentamicin]
increase in MIC after continuous 14 passages exposure (MRSA ATCC 33591 [3]): up to 128 fold
increase in MIC (cross-resistance) (MRSA ATCC 33591 [3]; final generation of MRSA ATCC 33591 treated with the peptide for 14 passages): 128 fold
increase in MIC after continuous 14 passages exposure [4]: up to 512 fold

Polymyxin B
ROS accumulation [6]: ROS elevation was observed only at 2 × MIC and 4 × MIC
lung histology (H&E) ([7]; K. pneumoniae ATCC 700603 pneumonia model): substantially alleviated these pathological changes
decrease of bacterial load in the lungs ([7]; K. pneumoniae ATCC 700603 pneumonia, 5 mg/kg i.p. at 4, 8, 12 h, 24 h, n = 6): 1.58 log10CFU
Cystatin C, Lipocalin 2 and Havcr1 mRNA in the kidneys [8]: notable increase in Cystatin C and Lipocalin 2 mRNA levels
renal tubular injury scores [9]: significantly higher injury scores than normal mice
NGAL, Cystatin C and Kim-1 levels in serum or urine [10]: did not cause noticeable changes
organ indices (heart, liver, spleen, lung, kidney) ([11]; 7 days, vs control group): higher than that in the control group
BUN and CREA levels ([11]; 7 days, AMP 1003 20, 30 or 40 mg/kg, polymyxin B 20 mg/kg): comparable to that of control group
hepatotoxicity (ALT, AST) ([11]; 7 days, AMP 1003 all doses, polymyxin B 20 mg/kg): no apparent hepatotoxicity
organ histology (H&E) ([11]; AMP 1003: only at 40 mg/kg): more severe tissue damage

CN(C)c1ccc(O)c2c1C[C@H]1C[C@H]3[C@H](N(C)C)C(O)=C(C(N)=O)C(=O)[C@@]3(O)C(O)=C1C2=O [Minocycline]
increase in MIC after continuous 14 passages exposure [4]: up to 8 fold
